Biological target: T1, UGT2B7 (Homo sapiens, UniProt P16662)
T1 sequence (P16662 24-529): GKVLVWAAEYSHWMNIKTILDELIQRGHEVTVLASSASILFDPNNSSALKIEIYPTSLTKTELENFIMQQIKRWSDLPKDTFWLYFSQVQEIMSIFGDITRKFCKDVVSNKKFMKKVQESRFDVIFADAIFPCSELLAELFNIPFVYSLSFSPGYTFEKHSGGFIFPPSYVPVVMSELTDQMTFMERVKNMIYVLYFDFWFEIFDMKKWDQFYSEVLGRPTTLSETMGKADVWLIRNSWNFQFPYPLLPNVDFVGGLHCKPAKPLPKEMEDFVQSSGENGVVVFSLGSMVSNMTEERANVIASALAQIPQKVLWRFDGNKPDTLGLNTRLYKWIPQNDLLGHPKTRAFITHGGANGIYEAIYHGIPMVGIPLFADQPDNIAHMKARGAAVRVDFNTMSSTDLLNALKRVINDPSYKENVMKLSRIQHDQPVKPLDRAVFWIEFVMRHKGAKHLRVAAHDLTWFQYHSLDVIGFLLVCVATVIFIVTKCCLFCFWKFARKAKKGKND
Assay: Inhibition of UGT2B7 (zidovudine glucuronidation) in human liver microsomes
Assay type: in vitro ADME
Design: tissue Corning Life Sciences 452156; host or cells: pooled human liver microsomes
Protocol: Their IC50 values were compared to that of sauchinone. […] UGT-mediated activities in the presence of sauchinone as an inhibitor were expressed as percentages of corresponding control values (in absence of sauchinone). From percentages of control activity versus inhibitor concentrations, a sigmoid shaped curve was fitted to the data and IC50 as an enzyme inhibition parameter was calculated by fitting the Hill equation to the data using GraphPad Prism 5 (GraphPad Software Inc., San Diego, CA, USA).

O=C1Nc2ccc(Cl)cc2[C@@](C#CC2CC2)(C(F)(F)F)O1 [Efavirenz]
IC50: 75.4 µM
